Marks after values point to notes of the source that are not given here.
What was measured:
Type in all cases: in vivo
[1] = test system: white clover (Trifolium repens); experiment: Glasshouse trial, control of white clover, granules applied post-emergence (Example 4); settings: pendimethalin granules 1120 g ai/ha + mesotrione granules 200 g ai/ha
Description: 200 litres of herbicide/adjuvant system was used per hectare. General weed control was evaluated at 7 and 14 days after treatment (DAT). It is noted that all herbicides were applied at reduced field rates because herbicide effects are magnified in a glasshouse environment. Rates were chosen to give a 50 to 70% level of control with herbicides applied alone as this allows for detection of any synergistic effect when tank mixtures are used. The results were evaluated using the Colby formula. The expected result for (A+B) is (A+B)−(A×B/100) where A and B are the ‘observed’ results for A and B on their own. […] A glasshouse trial was carried out as described in Example 1, except that the herbicides were applied in the form of granules. Mesotrione granules were made by spraying a mesotrione millbase (28% SC formulation) onto a granular carrier, Agsorb LVM-GA 24/48. Pendimethalin granules were made by adding Prowl® 3.3EC (37.4%) and Agsorb LVM-GA 24/48 granules into a tumbler, followed by spraying with a binder, HiSil 233. For testing mixtures of mesotrione and pendimethalin, the appropriate number of granules for each herbicide were weighed and thoroughly mixed. Granules were weighed for each individual pot using an amount equivalent to the rates listed in Table 2, and, based on a pot surface area of 10 cm^2, were carefully hand sprinkled on the emerged plants and pot surface. […]

[2] = test system: goosegrass (Eleusine indica); experiment: Glasshouse trial, control of goosegrass, spray applied pre-emergence (Example 1); settings: for Actual weed control, Plus Mesotrione at 100 g ai/ha: X-77 0.1% v/v
Description: (§1) In the following tests, herbicides were applied at reduced field rates because herbicide effects are magnified in a glasshouse environment. The rates tested were selected to give between about 50 and 70% control with herbicides applied alone, so that any synergistic effect could be readily detected when testing mixtures. A glasshouse trial was carried out. Goosegrass seeds were sown into standard glasshouse potting mix (1:1 v/v Promix:Vero sand soil) contained in 10 cm square plastic pots. Treatments were replicated three times. Mesotrione (in the form Callisto® 480SE) was applied pre-emergence to goosegrass (Eleusine indica) at 100 g ai/ha with or without pendimethalin (in the form Prowl® H2O). When used, pendimethalin was applied at a rate of 140 g ai/ha or 280 g ai/ha. The adjuvant system was X-77 at 0.1% v/v in deionised water. 200 litres of herbicide/adjuvant system was used per hectare. General weed control was evaluated at 7 and 14 days after treatment (DAT). It is noted that all herbicides were applied at reduced field rates because herbicide effects are magnified in a glasshouse environment. Rates were chosen to give a 50 to 70% level of control with herbicides applied alone as this allows for detection of any synergistic effect when tank mixtures are used. The results were evaluated using the Colby formula. The expected result for (A+B) is (A+B)−(A×B/100) where A and B are the ‘observed’ results for A and B on their own.

[3] = test system: goosegrass (Eleusine indica); experiment: Glasshouse trial, control of goosegrass, granules applied pre-emergence (Example 2)
Description: as §1, with “A” for “In the following tests, herbicides were applied at reduced field rates because herbicide effects are magnified in a glasshouse environment. The rates tested were selected to give between about 50 and 70% control with herbicides applied alone, so that any synergistic effect could be readily detected when testing mixtures. A”, “own. […] A glasshouse trial was carried out as described in Example 1, except that the herbicides were applied in the form of granules. Mesotrione granules were made by spraying a mesotrione millbase (28% SC formulation) onto a granular carrier, Agsorb LVM-GA 24/48. Pendimethalin granules were made by adding Prowl® 3.3EC (37.4%) and Agsorb LVM-GA 24/48 granules into a tumbler, followed by spraying with a binder, HiSil 233. For testing mixtures of mesotrione and pendimethalin, the appropriate number of granules for each herbicide were weighed and thoroughly mixed. […]” for “own.”

[4] = pendimethalin granules 140 g ai/ha + mesotrione granules 100 g ai/ha
[5] = pendimethalin granules 140 g ai/ha + mesotrione granules 200 g ai/ha
[6] = pendimethalin granules 280 g ai/ha + mesotrione granules 100 g ai/ha
[7] = pendimethalin granules 280 g ai/ha + mesotrione granules 200 g ai/ha

## CCC(CC)Nc1c([N+](=O)[O-])cc(C)c(C)c1[N+](=O)[O-] [Pendimethalin, N-(1-ethylpropyl)-3,4-dimethyl-2,6-dinitrobenzenamine]
[1]
  Actual weed control, Plus Mesotrione at 200 g ai/ha: 93* %
  Expected weed control (Colby formula), Plus Mesotrione at 200 g ai/ha: 76%
[2]; pendimethalin 140 g ai/ha + mesotrione 100 g ai/ha
  Expected weed control (Colby formula), Plus Mesotrione at 100 g ai/ha: 22%
[2]; pendimethalin 280 g ai/ha + mesotrione 100 g ai/ha
  Expected weed control (Colby formula), Plus Mesotrione at 100 g ai/ha: 22%
[2]; pendimethalin (Prowl H2O) 140 g ai/ha + mesotrione (Callisto 480SE) 100 g ai/ha
  Actual weed control, Plus Mesotrione at 100 g ai/ha: 35* %
[2]; pendimethalin (Prowl H2O) 280 g ai/ha + mesotrione (Callisto 480SE) 100 g ai/ha
  Actual weed control, Plus Mesotrione at 100 g ai/ha: 37* %
[3]; [4]
  Actual weed control, Plus Mesotrione at 100 g ai/ha: 67* %
  Expected weed control (Colby formula), Plus Mesotrione at 100 g ai/ha: 48%
[3]; [5]
  Actual weed control, Plus Mesotrione at 200 g ai/ha: 95* %
  Expected weed control (Colby formula), Plus Mesotrione at 200 g ai/ha: 80%
[3]; [6]
  Actual weed control, Plus Mesotrione at 100 g ai/ha: 87* %
  Expected weed control (Colby formula), Plus Mesotrione at 100 g ai/ha: 49%
[3]; [7]
  Actual weed control, Plus Mesotrione at 200 g ai/ha: 100* %
  Expected weed control (Colby formula), Plus Mesotrione at 200 g ai/ha: 80%

From patent publication US20100210464A1, “HERBICIDAL COMPOSITION AND METHOD OF USE THEREOF” (SYNGENTA CROP PROTECTION, INC., priority 2007, published 2010)
